According to ChEMBL document CHEMBL1159184, “7-Silylcamptothecins (silatecans): A new family of camptothecin antitumor agents” (Bioorg Med Chem Lett, 1997):

Assays:
[1] = The compound was evaluated for enhancement of topoisomerase I mediated DNA cleavage of supercoiled DNA; 0.1-1; format: functional
DC3F [2] = experiment: Tested in vitro for growth inhibitory activity against DC-3F (hamster lung) cells; format: functional, cell-based; details: Cricetulus griseus
833K = experiment: Tested in vitro for growth inhibitory activity against 833K (human teratorcarcinoma) cells; format: functional, cell-based
[3] = The compound was evaluated for inhibition of topoisomerase I mediated DNA relaxation of supercoiled DNA; 0.1-1; format: functional
HL-60 = experiment: Tested in vitro for growth inhibitory activity against HL60 (human promyelocytic leukemic) cells; format: functional, cell-based
[4] = The compound was evaluated for inhibition of topoisomerase I mediated DNA relaxation of supercoiled DNA; 1-2; format: functional
[5] = The compound was evaluated for enhancement of topoisomerase I mediated DNA cleavage of supercoiled DNA; 1-2; format: functional
[6] = The compound was evaluated for inhibition of topoisomerase I mediated DNA relaxation of supercoiled DNA; format: functional
[7] = The compound was evaluated for inhibition of topoisomerase I mediated DNA relaxation of supercoiled DNA; 5-20; format: functional
DC3F [8] = experiment: The compound was tested in vitro for growth inhibitory activity against DC-3F (hamster lung) cells; Inactive; format: functional, cell-based, Cricetulus griseus
[9] = The compound was evaluated for enhancement of topoisomerase I mediated DNA cleavage of supercoiled DNA; 2-5; format: functional

Which Enhancement [1] does the source give for CC[C@@]1(O)C(=O)OCc2c1cc1n(c2=O)Cc2c-1nc1ccccc1c2[Si](C)(C)C(C)(C)C here?
The Enhancement was 0.1 µM.

And the IC50 (DC3F [2])?
The IC50 was 2.9 nM.

What about the IC50 (833K) of the same compound?
The IC50 was 1.2 nM.

And the Inhibition [3]?
The Inhibition was 1 µM.

What about the IC50 (HL-60) of the same compound?
Its IC50 is 0.12 nM.

Which IC50 (DC3F [2]) does the source give for CC[C@@]1(O)C(=O)OCc2c1cc1n(c2=O)Cc2c-1nc1cc(N)ccc1c2[Si](C)(C)C here?
Its IC50 is 6.4 nM.

And the IC50 (833K)?
Its IC50 is 7.4 nM.

What about the IC50 (HL-60) of the same compound?
Its IC50 is 2.6 nM.

Which results are given for CC[C@@]1(O)C(=O)OCc2c1cc1n(c2=O)Cc2cc3ccccc3nc2-1 [CAMPTOTHECIN]?
Inhibition [4]: 1 µM; IC50 (DC3F [2]): 6 nM; IC50 (833K): 10 nM; Enhancement [5]: 1 µM; IC50 (HL-60): 5 nM

With CC[C@@]1(O)C(=O)OCc2c1cc1n(c2=O)Cc2c-1nc1ccc(O)cc1c2[Si](C)(C)C as the compound, how does the Enhancement [1] read?
The Enhancement was 0.1 µM.

What about the IC50 (DC3F [2]) of the same compound?
The IC50 was 6.9 nM.

And the IC50 (833K)?
The IC50 was 7 nM.

What about the Inhibition [6] of the same compound?
Its Inhibition is less than 0.1 µM.

What about the IC50 (HL-60) of the same compound?
Its IC50 is 2.6 nM.

Which Inhibition [4] does the source give for CC[C@@]1(O)C(=O)OCc2c1cc1n(c2=O)Cc2c-1nc1c(F)c(F)ccc1c2[Si](C)(C)C here?
Its Inhibition is 1 µM.

What about the IC50 (DC3F [2]) of the same compound?
Its IC50 is 2.5 nM.

And the IC50 (833K)?
Its IC50 is 2.1 nM.

And the Enhancement [5]?
Its Enhancement is 1 µM.

And the IC50 (HL-60)?
Its IC50 is 1.01 nM.

Which results are given for CC[C@@]1(O)C(=O)OCc2c1cc1n(c2=O)Cc2c-1nc1cc(F)c(N)cc1c2[Si](C)(C)C?
Enhancement [1]: 0.1 µM; IC50 (DC3F [2]): 0.29 nM; IC50 (833K): 0.14 nM; Inhibition [3]: 0.1 µM; IC50 (HL-60): 0.07 nM

Which IC50 (DC3F [2]) does the source give for CCc1c2c(nc3ccc(N4CCCC4N4CCCC4OC(N)=O)cc13)-c1cc3c(c(=O)n1C2)COC(=O)[C@]3(O)CC (stereo not given in full) here?
The IC50 was 372 nM.

And the IC50 (833K)?
The IC50 was 487 nM.

What about the IC50 (HL-60) of the same compound?
Its IC50 is 270 nM.

With CC[C@@]1(O)C(=O)OCc2c1cc1n(c2=O)Cc2c-1nc1ccc(OC(C)=O)cc1c2[Si](C)(C)C as the compound, how does the Enhancement [1] read?
The Enhancement was 0.1 µM.

What about the IC50 (DC3F [2]) of the same compound?
Its IC50 is 6.7 nM.

And the Inhibition [6]?
Its Inhibition is less than 0.1 µM.

And the IC50 (HL-60)?
Its IC50 is 2.7 nM.

For CC[C@@]1(O)C(=O)OCc2c1cc1n(c2=O)Cc2c-1nc1ccc(N)cc1c2[Si](C)(C)C, which IC50 (DC3F [2]) is on record?
Its IC50 is 0.72 nM.

And the IC50 (833K)?
Its IC50 is 5.7 nM.

What about the IC50 (HL-60) of the same compound?
Its IC50 is 0.52 nM.

Which results are given for CC[C@@]1(O)C(=O)OCc2c1cc1n(c2=O)Cc2c-1nc1cccc(F)c1c2[Si](C)(C)C?
Enhancement [1]: 0.1 µM; IC50 (DC3F [2]): 8.2 nM; IC50 (833K): 2.9 nM; Inhibition [3]: 0.1 µM; IC50 (HL-60): 3 nM

Which Inhibition [7] does the source give for CCC(=O)OCc1c([C@@](O)(CC)C(=O)NCCN(C)C)cc2n(c1=O)Cc1c-2nc2ccc(O)cc2c1[Si](C)(C)C here?
Its Inhibition is 5 µM.

And the IC50 (DC3F [2])?
Its IC50 is 14.2 nM.

And the IC50 (833K)?
Its IC50 is 15 nM.

And the Enhancement [5]?
Its Enhancement is 1 µM.

What about the IC50 (HL-60) of the same compound?
Its IC50 is 9.7 nM.

Which IC50 (833K) does the source give for CC[C@@]1(O)C(=O)OCc2c1cc1n(c2=O)Cc2c-1nc1ccc(CCc3ccc4nc5c(c([Si](C)(C)C)c4c3)Cn3c-5cc4c(c3=O)COC(=O)[C@]4(O)CC)cc1c2[Si](C)(C)C here?
The IC50 was 84 nM.

What about the Inhibition [6] of the same compound?
The Inhibition was greater than 20 µM.

And the IC50 (DC3F [8])?
The IC50 was “Not Active”.

What about the IC50 (HL-60) of the same compound?
The IC50 was 53 nM.

Which Enhancement [9] does the source give for CC[C@@]1(O)C(=O)OCc2c1cc1n(c2=O)Cc2c-1nc1ccccc1c2[Si](c1ccccc1)(c1ccccc1)C(C)(C)C here?
Its Enhancement is 2 µM.

What about the Inhibition [7] of the same compound?
Its Inhibition is 5 µM.

And the IC50 (DC3F [2])?
The IC50 was 663 nM.

And the IC50 (833K)?
Its IC50 is 243 nM.

What about the IC50 (HL-60) of the same compound?
Its IC50 is 339 nM.

What does the source list for CC[C@@]1(O)C(=O)OCc2c1cc1n(c2=O)Cc2c-1nc1cc(F)ccc1c2[Si](C)(C)C?
Enhancement [1]: 0.1 µM; IC50 (DC3F [2]): 2 nM; IC50 (833K): 0.92 nM; Inhibition [6]: < 0.1 µM; IC50 (HL-60): 0.75 nM

With CC[C@@]1(O)C(=O)OCc2c1cc1n(c2=O)Cc2c-1nc1ccc(N3CCCC3N3CCCC3OC(N)=O)cc1c2[Si](C)(C)C (stereo not given in full) as the compound, how does the IC50 (DC3F [2]) read?
The IC50 was 256 nM.

What about the IC50 (833K) of the same compound?
The IC50 was 214 nM.

What about the IC50 (HL-60) of the same compound?
Its IC50 is 66 nM.

With CC[C@@]1(O)C(=O)OCc2c1cc1n(c2=O)Cc2c-1nc1ccccc1c2[Si](C)(C)C as the compound, how does the Enhancement [1] read?
The Enhancement was 0.1 µM.

And the IC50 (DC3F [2])?
Its IC50 is 4.2 nM.

What about the IC50 (833K) of the same compound?
The IC50 was 5.6 nM.

And the Inhibition [3]?
The Inhibition was 1 µM.

What about the IC50 (HL-60) of the same compound?
The IC50 was 3.8 nM.
